Measurements as given in publication PMC10999543, “Identification of kinase modulators as host-directed therapeutics against intracellular methicillin-resistant Staphylococcus aureus” (Frontiers in Cellular and Infection Microbiology, 2024).
Where two headings read alike, the source gives them in different places.

Key:
intracellular MRSA = assay type: cell-based, Staphylococcus aureus; conditions: for z-scoreMRSA+ mean: mean of 3 replicates; for z-scoreMRSA+ rep 1 / %GFP+ rep 1: replicate 1; for z-scoreMRSA+ rep 2 / %GFP+ rep 2: replicate 2; for z-scoreMRSA+ rep 3 / %GFP+ rep 3: replicate 3
Experimental: (§1) The cells were resuspended in cell culture medium without antibiotics, seeded with 10,000 cells/well into Costar flat-bottom 96-well plates (Corning, Amsterdam, the Netherlands), and were incubated overnight at 37°C/5% CO2. The next day, the bacteria were centrifuged at ≥1800 g for 15 min and resuspended in cold PBS + 5 mM ethylenediaminetetraacetic acid (EDTA). The number of CFUs present in the bacterial suspension was estimated from the optical density at 600 nm (OD600) by assuming 8x10^8 CFUs to be present in a bacterial suspension with OD600 = 1, based on prior titrations. The bacterial suspension was diluted in cell culture medium without antibiotics and added to the cells. Accuracy of the multiplicity of infection (MOI) was validated by plating serial dilutions of the MRSA inoculums on Difco TS agar plates (BD Biosciences). The calculated mean MOI throughout all experiments was 6.8 ± 4.6 (mean ± SD). Infected cells were centrifuged for 3 min at 150 g and incubated for 1 hour at 37°C/5% CO2. Next, the cells were incubated with fresh cell culture medium supplemented with 30 µg/ml gentamicin sulphate (Lonza BioWhittaker, Basel, Switzerland) for 15 min at 37°C/5% CO2 to kill residual extracellular bacteria. Infected cells were incubated overnight at 37°C/5% CO2 in cell culture medium in the presence of kinase inhibitors and 5 µg/ml gentamicin sulphate-containing medium to prevent the growth of extracellular bacteria. The solvent of the compounds, DMSO, was used at equal % v/v as a negative control. For the screen, each compound was tested in triplicate, on separate cell culture plates, resulting in triplicate values for each kinase inhibitor.
(§2) HeLa cells were harvested by trypsinization and fixed with 1% paraformaldehyde. Samples were measured on a FACSLyric with HTS extension (BD Biosciences). Flow cytometry data were analysed using FlowJo version 10 (TreeStar, Ashland, OR, USA). HeLa cells positive for GFP were gated to calculate the percentage of MRSA-infected cells. The cell count was used as surrogate readout of cell viability.
To identify potential “hit” compounds, the flow cytometry data were used to calculate standard z-scores using z = (x-μ)/σ – zneg, where x is total event count or the percent of GFP-positive cells from a single well, μ is the mean from wells of the plate, σ is the standard deviation of the plate and zneg is the mean z-score of the negative control of the plate (i.e., DMSO) ([Korbee et al., 2018]). To minimize the possibility that the presence of extreme values on a plate affected the z-scores, raw values that deviated two-fold from the negative controls were excluded when calculating plate means and standard deviations as used in the aforementioned formula. Compounds were considered a “hit” when z-scoreMRSA+ ≤ -2 and z-scoreHeLa ≥ -3 for cell count. In cases where compounds were screened twice, the average values were used to select hit compounds.

HeLa cells = assay: Compound screen by flow cytometry: HeLa cell count as surrogate readout of cell viability (z-scoreHeLa); assay type: cell-based, human; conditions: for z-scoreHeLa mean: mean of 3 replicates; for z-scoreHeLa rep 1 / cell count rep 1: replicate 1; for z-scoreHeLa rep 2 / cell count rep 2: replicate 2; for z-scoreHeLa rep 3 / cell count rep 3: replicate 3
Experimental: as §1, §2
To minimize the possibility that the presence of extreme values on a plate affected the z-scores, raw values that deviated two-fold from the negative controls were excluded when calculating plate means and standard deviations as used in the aforementioned formula. Compounds were considered a “hit” when z-scoreMRSA+ ≤ -2 and z-scoreHeLa ≥ -3 for cell count. In cases where compounds were screened twice, the average values were used to select hit compounds.

[1] = PKIS compound screen, Yes/No call
[2] = PKIS compound screen, Yes/No call (effect without cell death)
[3] = PKIS compounds raw data, MRSA-infected HeLa cells
[4] = PKIS compounds raw data, HeLa cell count
[5] = Yes/No: effect without cell death
[6] = compound screen, MRSA-infected HeLa cells
[7] = compound screen, HeLa cell count
[8] = PKIS compound screen raw data, MRSA-infected HeLa cells
[9] = PKIS compound screen, MRSA-infected HeLa cells
[10] = PKIS compound screen, Yes/No call on z-scoreMRSA+
[11] = PKIS compound screen raw data, HeLa cell count
[12] = PKIS compound screen, HeLa cell count

SMILES	effect (intracellular MRSA; [1])	hit (intracellular MRSA; [2])	z-scoreMRSA+ mean (intracellular MRSA; PKIS compound screen)	z-scoreMRSA+ rep 1 (intracellular MRSA; PKIS compound screen)	z-scoreMRSA+ rep 2 (intracellular MRSA; PKIS compound screen)	z-scoreMRSA+ rep 3 (intracellular MRSA; PKIS compound screen)	%GFP+ rep 1 (intracellular MRSA; [3])	%GFP+ rep 2 (intracellular MRSA; [3])	%GFP+ rep 3 (intracellular MRSA; [3])	cell death (HeLa cells; [1])	z-scoreHeLa mean (HeLa cells; PKIS compound screen)	z-scoreHeLa rep 1 (HeLa cells; PKIS compound screen)	z-scoreHeLa rep 2 (HeLa cells; PKIS compound screen)	z-scoreHeLa rep 3 (HeLa cells; PKIS compound screen)	cell count rep 1 (HeLa cells; [4])	cell count rep 2 (HeLa cells; [4])	cell count rep 3 (HeLa cells; [4])	effect (intracellular MRSA; Yes/No call from z-scoreMRSA+)	hit (intracellular MRSA; [5])	z-scoreMRSA+ mean (intracellular MRSA; [6])	other results
COc1ccc2ncnc(Nc3ccc(OCc4ccccc4)cc3)c2c1 [GI261520A]	No	No	-0.60	-0.44	-0.0319	-1.33	11.8%	13.4%	11.4%	No	1.78	1.21	1.33	2.78	6115	6030	12782				
Oc1ccc2ncnc(Nc3ccc(OCc4ccccc4)cc3)c2c1 [GI262866A]							22.5%	22.3%	21.5%						5744	4904	6919	No	No	-0.31	z-scoreMRSA+ rep 1 (intracellular MRSA; [6]): -0.65; z-scoreMRSA+ rep 2 (intracellular MRSA; [6]): -0.0758; z-scoreMRSA+ rep 3 (intracellular MRSA; [6]): -0.21; cell death (HeLa cells; Yes/No call from z-scoreHeLa): No; z-scoreHeLa mean (HeLa cells; [7]): 0.84; z-scoreHeLa rep 1 (HeLa cells; [7]): 1.00; z-scoreHeLa rep 2 (HeLa cells; [7]): 0.46; z-scoreHeLa rep 3 (HeLa cells; [7]): 1.06
c1ccc(Cc2nc3ccc(Nc4ncnc5ccccc45)cc3[nH]2)cc1 [GR269666A]	No	No	0.046	0.07	0.77	-0.71	13.4%	15.8%	13.5%	No	0.30	0.10	0.40	0.42	4886	4795	7830				
Cc1cnc(N)c(/C=C/c2cncc(C(=O)NCCc3ccc(Cl)cc3Cl)c2)c1 [GSK190937A]		No																			%GFP+ rep 1 (intracellular MRSA; [8]): 17.3%; %GFP+ rep 2 (intracellular MRSA; [8]): 19.0%; %GFP+ rep 3 (intracellular MRSA; [8]): 19.5%; z-scoreMRSA+ mean (intracellular MRSA; [9]): -0.04; z-scoreMRSA+ rep 1 (intracellular MRSA; [9]): -0.18; z-scoreMRSA+ rep 2 (intracellular MRSA; [9]): 0.14; z-scoreMRSA+ rep 3 (intracellular MRSA; [9]): -0.09; effect (intracellular MRSA; [10]): No
CCNC(=O)O[C@H]1CN[C@H](C#Cc2cc3ncnc(Nc4ccc(OCc5cccc(F)c5)c(Cl)c4)c3s2)C1 [GSK192082A]							6.9%	7.5%	8.8%						3041	2947	5819	Yes	Yes	-2.04	z-scoreMRSA+ rep 1 (intracellular MRSA; [6]): -2.01; z-scoreMRSA+ rep 2 (intracellular MRSA; [6]): -2.02; z-scoreMRSA+ rep 3 (intracellular MRSA; [6]): -2.09; cell death (HeLa cells; Yes/No call from z-scoreHeLa): No; z-scoreHeLa mean (HeLa cells; [7]): -1.04; z-scoreHeLa rep 1 (HeLa cells; [7]): -1.57; z-scoreHeLa rep 2 (HeLa cells; [7]): -1.00; z-scoreHeLa rep 3 (HeLa cells; [7]): -0.55
O=C(O[C@H]1CN[C@H](C#Cc2cc3ncnc(Nc4ccc5c(cnn5Cc5ccccc5)c4)c3s2)C1)N1CCOCC1 [GSK200398A]		No																			%GFP+ rep 1 (intracellular MRSA; [8]): 12.7%; %GFP+ rep 2 (intracellular MRSA; [8]): 13.5%; %GFP+ rep 3 (intracellular MRSA; [8]): 14.0%; z-scoreMRSA+ mean (intracellular MRSA; [9]): -1.64; z-scoreMRSA+ rep 1 (intracellular MRSA; [9]): -1.64; z-scoreMRSA+ rep 2 (intracellular MRSA; [9]): -1.51; z-scoreMRSA+ rep 3 (intracellular MRSA; [9]): -1.76; effect (intracellular MRSA; [10]): No; cell count rep 1 (HeLa cells; [11]): 22424; cell count rep 2 (HeLa cells; [11]): 29797; cell count rep 3 (HeLa cells; [11]): 30147; z-scoreHeLa mean (HeLa cells; [12]): -0.74; z-scoreHeLa rep 1 (HeLa cells; [12]): 0.35; z-scoreHeLa rep 2 (HeLa cells; [12]): -0.93; z-scoreHeLa rep 3 (HeLa cells; [12]): -1.65; cell death (HeLa cells; PKIS compound screen, Yes/No call on z-scoreHeLa): No
